Results: patent publication US20100247579A1, “THERAPEUTIC AGENT FOR CANCER” (priority 2007, published 2010)

Legend:
Type in all cases: cell-based, human
[1] = test system: lymphocytes expanded from PBMC of cancer patient; assay: Flow cytometry analysis of naive T-like cell phenotypes in expanded lymphocytes; details: Example 5
Description: The cells on days 10 and 14 of culture, prepared in item (3) of Example 2, were washed with DPBS containing 1% bovine serum albumin (BSA, manufactured by Sigma) (hereinafter referred to as 1% BSA/DPBS) or DPBS, and the cells were suspended in 1% BSA/DPBS, then FITC labeled mouse IgG1/RD1 labeled mouse IgG1/PC5 labeled mouse IgG1 (manufactured by Beckman Coulter Inc.) were added thereto as a negative control. Similarly, cells added with RD1 labeled mouse anti-human CD45RA antibody (manufactured by Beckman Coulter Inc.)/FITC labeled mouse anti-human CCR7 antibody (manufactured by R&D Systems), cells added with RD1 labeled mouse anti-human CD45RA antibody/FITC labeled mouse anti-human CD28 antibody (manufactured by eBioscience, Inc.)/PC5 labeled mouse anti-human CD27 antibody (manufactured by Beckman Coulter Inc.), and cells added with RD1 labeled mouse anti-human CD45RA antibody/FITC labeled mouse anti-human CCR7 antibody/PC5 labeled mouse anti-human CD62L antibody (manufactured by Beckman Coulter Inc.) were prepared. After addition of each antibody, incubation was carried out on ice for 30 minutes. After the incubation, the cells were washed with DPBS containing 0.1% BSA (hereinafter referred to as 0.1% BSA/DPBS), and suspended again in DPBS. The ratio of CCR7^+CD45RA^+ cells, CD27^+CD45RA^+ cells, CD28^+CD45RA^+ cells, CD62L^+CD45RA^+ cells, and CCR7^+CD62L^+CD45RA^+ cells of each cell population was calculated. […]
With respect to the cells on days 10 and 14 of culture, prepared in item (2) of Example 5, analysis of CCR7^+CD45RA^+ cells, CD62L^+CD45RA^+ cells, and CCR7^+CD62L^+CD45RA^+ cells was performed similarly to the method described in item (4) of Example 2.

[2] = test system: PHA blast cells from non-autologous healthy donor; assay: Non-autologous specific cytotoxicity after allogeneic MLR (Calcein-AM); details: E/T ratio 90
Description: The PBMCs derived from a non-autologous healthy donor, prepared in item (2) of Example 6, were adjusted with 5HRPMI to 1×10^6 cells/mL, and seeded to a 6-well cell culture plate (manufactured by Corning Inc.) in a volume of 3 mL each. IL-2 was added thereto to a final concentration of 100 U/mL and phytohemaaglutinin (manufactured by Sigma, hereinafter referred to as PHA) was added thereto to a final concentration of 2 μg/mL, and the cells were cultured at 37° C. in 5% CO2. On day 4 of culture, 12 mL of 5HRPMI was added to the cell culture and IL-2 was added thereto to a final concentration of 100 U/mL. Thereafter, the cell culture was dispensed into a 6-well cell culture plate so as to have a volume of 5 mL/well. The culture was continued until day 7 of culture, thereby preparing PHA blast (blastogenic) cells.
Using the cells on day 7 of culture prepared in item (3) of Example 6, non-autologous specific cytotoxicity was assayed in the same manner as in item (5) of Example 2, except that the PHA blast cells which had been subjected to blastogenic cells in item (4) of Example 6 were used as the target cells which were incubated at 37° C. for 2 hours after addition of calcein-AM. These calcein-labeled target cells were mixed with a 30-fold amount of K562 cells, and the cytotoxicity was assayed using these target cells for determining the cytotoxicity. […]

[3] = test system: PBMC of cancer patient; assay: Expansion of lymphocytes from PBMC of cancer patients in plate/flask, OKT3 alone versus OKT3 and CH-296
Description: The OKT3 and the CH-296 were immobilized to the culture equipment used in the following experiment. That is, an ACD-A solution containing OKT3 (final concentration: 5 μg/mL) and CH-296 (final concentration: 25 μg/mL) was added to a 12-well cell culture plate (manufactured by Corning Inc.) in a volume of 0.45 mL/well each, and incubated at 37° C. for 5 hours in 5% CO2. On this occasion, a group wherein only OKT3 was immobilized was set. The ACD-A solution containing the OKT3 or the OKT3 and the CH-296 was removed from the culture equipment by aspiration just before use, washed twice with DPBS and once with the RPMI 1640 medium, and then subjected to each experiment.
The PBMC of 0.53×10^6 cells derived from the cancer patient and separated in item (1) of Example 2 was suspended in 5.3 mL of 0.6% plasma containing KBM551 or 0.2% HSA/GT-T503, and added to the plate immobilized with the OKT3 or the OKT3 and the CH-296 as prepared in item (1) of Example 5. IL-2 was added thereto so as to have a final concentration of 200 U/mL and the mixture was incubated at 37° C. under 5% CO2 (on day 0 of culture). On day 4 of culture, the cell solution in each well was suspended, and a part of the suspension was diluted 8.3-fold using 0.6% plasma-containing KBM551 or 0.2% HSA/GT-T503. Then, 7.8 mL of the diluted solution was transferred to a 25 cm^2-cell culture flask (manufactured by Corning Inc.) to which nothing was immobilized, and added with IL-2 to each final concentration of 200 U/mL. The culture was continued, and on day 7, a plasma free KBM551 or a 0.2% HSA/GT-T503 was added to the culture solution in each group in an equivalent amount to dilute two-fold, and then added with IL-2 so as to have each final concentration of 200 U/mL. On day 10 of culture, the cell solution in each group was diluted two-fold using a plasma free KBM551 or a 0.2% HSA/GT-T503, and 15.6 mL each of the diluted solution was transferred to a fresh standing 25 cm^2-cell culture flask to which nothing was immobilized. IL-2 was added thereto so as to have a final concentration of 200 U/mL in each group. On days 10 and 14 from the start of culture, the number of viable cells was counted by the trypan blue staining method and an expansion fold was calculated by comparing the number of counted cells with the number of cells at the start of culture.

[4] = test system: X-ray irradiated PBMCs derived from an allogeneic donor (stimulator cells); assay: Allogeneic mixed lymphocyte reaction (MLR) using cultured lymphocytes (expansion fold)
[5] = PBMC of patient PT003, 0.2% HSA/GT-T503
[6] = PBMC of patient PT006 (breast cancer), KBM551
[7] = PBMC of patient PT008 (laryngeal cancer), KBM551
[8] = PBMC of patient PT012 (rectal cancer), KBM551

## OKT3: Anti-CD3 monoclonal antibody (OKT3), immobilized alone to the culture equipment as initial stimulation
[1]; [5]
  CCR7^+CD45RA^+ (%) On Day 10 from Start of Culture: 13.3%
  CCR7^+CD62L^+CD45RA^+ (%) On Day 10 from Start of Culture: 13.1%
  CD62L^+CD45RA^+ (%) On Day 10 from Start of Culture: 52.5%
[1]; PBMC of patient PT003, KBM551
  CCR7^+CD45RA^+ (%) On Day 10 from Start of Culture: 5.4%
  CCR7^+CD62L^+CD45RA^+ (%) On Day 10 from Start of Culture: 5.1%
  CD62L^+CD45RA^+ (%) On Day 10 from Start of Culture: 50.9%
[1]; PBMC of patient PT006, KBM551
  CCR7^+CD45RA^+ (%) On Day 10 from Start of Culture: 24.9%
  CCR7^+CD45RA^+ (%) On Day 14 from Start of Culture: 36.9%
  CCR7^+CD62L^+CD45RA^+ (%) On Day 10 from Start of Culture: 24.6%
  CCR7^+CD62L^+CD45RA^+ (%) On Day 14 from Start of Culture: 36.7%
  CD62L^+CD45RA^+ (%) On Day 10 from Start of Culture: 79.2%
  CD62L^+CD45RA^+ (%) On Day 14 from Start of Culture: 75.7%
[1]; PBMC of patient PT008, KBM551
  CCR7^+CD45RA^+ (%) On Day 10 from Start of Culture: 4.6%
  CCR7^+CD45RA^+ (%) On Day 14 from Start of Culture: 4.2%
  CCR7^+CD62L^+CD45RA^+ (%) On Day 10 from Start of Culture: 4.2%
  CCR7^+CD62L^+CD45RA^+ (%) On Day 14 from Start of Culture: 3.9%
  CD62L^+CD45RA^+ (%) On Day 10 from Start of Culture: 53.0%
[1]; PBMC of patient PT012, KBM551
  CCR7^+CD45RA^+ (%) On Day 10 from Start of Culture: 19.4%
  CCR7^+CD45RA^+ (%) On Day 14 from Start of Culture: 25.0%
  CCR7^+CD62L^+CD45RA^+ (%) On Day 10 from Start of Culture: 17.1%
  CCR7^+CD62L^+CD45RA^+ (%) On Day 14 from Start of Culture: 23.4%
  CD62L^+CD45RA^+ (%) On Day 10 from Start of Culture: 56.0%
  CD62L^+CD45RA^+ (%) On Day 14 from Start of Culture: 43.4%
[2]; lymphocytes of patient PT012, 10 days of lymphocyte expansion
  Cytotoxicity (%): 15.2%
[2]; lymphocytes of patient PT012, 14 days of lymphocyte expansion
  Cytotoxicity (%): 27.6%
[3]; PBMC of patient PT003 (breast cancer), 0.2% HSA/GT-T503
  Expansion Fold (Fold) On Day 10 from Start of Culture: ×200 Fold
[3]; PBMC of patient PT003 (breast cancer), KBM551
  Expansion Fold (Fold) On Day 10 from Start of Culture: ×193 Fold
[3]; [6]
  Expansion Fold (Fold) On Day 10 from Start of Culture: ×202 Fold
  Expansion Fold (Fold) On Day 14 from Start of Culture: ×382 Fold
[3]; [7]
  Expansion Fold (Fold) On Day 10 from Start of Culture: ×119 Fold
  Expansion Fold (Fold) On Day 14 from Start of Culture: ×292 Fold
[3]; [8]
  Expansion Fold (Fold) On Day 10 from Start of Culture: ×281 Fold
  Expansion Fold (Fold) On Day 14 from Start of Culture: ×723 Fold
[4]; lymphocytes of patient PT012, 10 days of lymphocyte expansion, responder:stimulator 1:0
  Expansion Rate (Fold): x3.0 Fold
[4]; lymphocytes of patient PT012, 10 days of lymphocyte expansion, responder:stimulator 1:1
  Expansion Rate (Fold): x5.3 Fold
[4]; lymphocytes of patient PT012, 14 days of lymphocyte expansion, responder:stimulator 1:0
  Expansion Rate (Fold): x1.1 Fold
[4]; lymphocytes of patient PT012, 14 days of lymphocyte expansion, responder:stimulator 1:1
  Expansion Rate (Fold): x3.7 Fold
